Usually EC50 stands for the concentration at which the effect is half-maximal. In general, IC50 refers to the midpoint of a concentration-inhibition curve. Read a low IC50 as greater potency. One may read the ΔTm as the change in melting temperature against a reference sample.

Where “and” joins values, the source holds several entries; their conditions need not be identical. Equal values may be shown once. Read-outs that look alike come from different tables or passages of the source.

The values that follow come from publication PMC10878397, “Development of Potent Dual BET/HDAC Inhibitors via Pharmacophore Merging and Structure-Guided Optimization” (ACS Chemical Biology, 2024).

The target in assay [1] is T1, BRD4 BD2 (Homo sapiens, UniProt O60885). In words: NanoBRET target engagement assay (HEK293T). The class given is cell-based. More on the design: BRD4 bromodomains and full-length HDACs were obtained as plasmids cloned in-frame with a terminal NanoLuc fusion; host or cells: HEK293T. The method, then:
(§1) The assay was performed as described previously.[17],[59] In brief, BRD4 bromodomains and full-length HDACs were obtained as plasmids cloned in-frame with a terminal NanoLuc fusion (Promega). Plasmids were transfected into HEK293T cells using FuGENE HD (Promega, E2312), and proteins were allowed to express for 20 h. Serially diluted inhibitor and the corresponding NanoBRET Tracer (Promega) at a concentration determined previously as the tracer KD, app were pipetted into white 384-well plates (Greiner #781207) for BRD assays or white 96-well plates (Corning #3600) for HDAC using an Echo acoustic dispenser (Labcyte). The corresponding protein-transfected cells were added and reseeded at a density of 2 × 10^5 cells/mL after trypsinization and resuspended in Opti-MEM without phenol red (Life Technologies). The system was allowed to equilibrate for 2 h at 37 °C/5% CO2 prior to BRET measurements. To measure BRET, NanoBRET NanoGlo substrate + Extracellular NanoLuc Inhibitor (Promega, N2540) was added as per the manufacturer’s protocol, and filtered luminescence was measured on a PHERAstar plate reader (BMG Labtech) equipped with a luminescence filter pair (450 nm BP filter (donor) and 610 nm LP filter (acceptor)). For lysed-mode NanoBRET experiments, digitonin (Promega, #G9441) was added as per the manufacturer’s instructions to a final concentration of […].
In general terms: Bioluminescence resonance energy transfer reports proximity on the nanometre scale.

Assay [2] concerns the target T2, BRD4 BD1 (Homo sapiens, UniProt O60885). The assay can be described thus: NanoBRET target engagement assay (HEK293T). More on the design: BRD4 bromodomains and full-length HDACs were obtained as plasmids cloned in-frame with a terminal NanoLuc fusion; host or cells: HEK293T. The class given is cell-based. How it is done:
as §1

Assay [3] deals with PaTu8988T cells. The assay can be described thus: CellTiter-Glo cell viability assay. Particulars: Homo sapiens, PaTu 8988t, 72 h; treatment for 3 days. The class given is cell-based. How it is done: (§2) PDAC cell line PaTu8988T was obtained from ATCC and cultured in Dulbecco’s modified Eagle’s medium (DMEM) containing 10% FBS, 25 mM glucose, […], 1 mM sodium pyruvate, and 1% penicillin–streptomycin. Nut midline carcinoma cell line HCC2429 was kindly provided by Lead Discovery Center GmbH (Dortmund, Germany) and was cultured in RPMI1640 medium containing 10% FBS, 2 mM L-glutamine, and 1% penicillin–streptomycin. Cell line PaTu8988T was authenticated using the Multiplex human Cell line Authentication Test (MCA) by Multiplexion GmbH, and cell line HCC2429 was authenticated using short tandem repeat (STR) profiling.
(§3) The assays were performed using Promega’s CellTiter-Glo Luminescent Cell Viability Assay kit (Cat. #G7571). First, compounds dissolved in DMSO were printed in 96-well plates (Corning) by using a Tecan D300e digital dispenser. Then, cells were seeded into the compound-printed plates using a Thermo Multidrop reagent dispenser. 72 h later, one volume of diluted CellTiter-Glo reagent (1:4 dilution with PBS) was added to individual wells by using the Thermo Multidrop reagent dispenser again. Plates were shaken for 2 min and incubated for 10 min in the dark. Luminescent signals were read by using a Tecan Spark Multimode Microplate Reader. The values were normalized to the DMSO control wells and presented as a percentage of cell viability. Dose–response curves were drawn with GraphPad Prism 8.
On the technique in general: In ATP-based viability assays light output follows the ATP content of the culture.

Assay [4] relates to HCC2429 cells. The assay can be described thus: CellTiter-Glo cell viability assay. Particulars: Homo sapiens, HCC2429, 72 h; treatment for 3 days. The class given is cell-based. The method, then:
as §2, §3

For assay [5], the target named is HDAC2 (Homo sapiens, UniProt Q92769). In words: NanoBRET target engagement assay (HEK293T). More on the design: BRD4 bromodomains and full-length HDACs were obtained as plasmids cloned in-frame with a terminal NanoLuc fusion; host or cells: HEK293T. The class given is cell-based. How it is done: (§4) The assay was performed as described previously.[17],[59] In brief, BRD4 bromodomains and full-length HDACs were obtained as plasmids cloned in-frame with a terminal NanoLuc fusion (Promega). Plasmids were transfected into HEK293T cells using FuGENE HD (Promega, E2312), and proteins were allowed to express for 20 h. […] The corresponding protein-transfected cells were added and reseeded at a density of 2 × 10^5 cells/mL after trypsinization and resuspended in Opti-MEM without phenol red (Life Technologies). The system was allowed to equilibrate for 2 h at 37 °C/5% CO2 prior to BRET measurements. […] For lysed-mode NanoBRET experiments, digitonin (Promega, #G9441) was added as per the manufacturer’s instructions to a final concentration of […].
Chain of HDAC2 (Q92769 whole entry, the tested form may be a part): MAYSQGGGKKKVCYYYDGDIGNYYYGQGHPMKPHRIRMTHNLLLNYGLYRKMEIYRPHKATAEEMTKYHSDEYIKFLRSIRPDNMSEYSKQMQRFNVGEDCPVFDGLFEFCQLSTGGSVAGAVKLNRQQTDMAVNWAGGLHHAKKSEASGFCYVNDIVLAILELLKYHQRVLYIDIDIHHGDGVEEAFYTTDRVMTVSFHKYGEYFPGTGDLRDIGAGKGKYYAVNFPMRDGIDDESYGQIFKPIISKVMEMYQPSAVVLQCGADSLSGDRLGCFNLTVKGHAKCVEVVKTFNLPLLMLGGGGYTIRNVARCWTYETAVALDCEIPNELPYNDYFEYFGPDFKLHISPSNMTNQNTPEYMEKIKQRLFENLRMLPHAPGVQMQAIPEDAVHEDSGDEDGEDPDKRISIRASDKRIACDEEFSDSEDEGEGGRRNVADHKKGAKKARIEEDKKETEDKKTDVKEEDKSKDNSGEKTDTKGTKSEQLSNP

Assay [6] concerns the target HDAC1 (Homo sapiens, UniProt Q13547). In words: NanoBRET target engagement assay (HEK293T). The class given is cell-based. More on the design: BRD4 bromodomains and full-length HDACs were obtained as plasmids cloned in-frame with a terminal NanoLuc fusion; host or cells: HEK293T. The method, then:
as §4

Assay [7] has as its target T1, BRD4 BD2. The assay can be described thus: DSF thermal shift assay. The class given is binding. More on the design: purchased in-house (SGC Frankfurt recombinant bromodomain DSF panel). How it is done: (§5) The effects of inhibitor binding on the apparent melting temperature of recombinant bromodomains were determined by DSF in a 96-well plate (Starlab) at a protein concentration of 2 μM with 10 μΜ compound in buffer containing 25 mM HEPES, pH 7.5, 150 mM NaCl, and 0.5 mM TCEP. […] Protein unfolding profiles were recorded using an MX3005P real-time qPCR instrument (Agilent; excitation/emission filters = 492/610 nm) while increasing the temperature from 25 to 95 °C at a heating rate of 3 °C/min. Tm values were calculated after fitting the fluorescence curves to the Boltzmann equation. Differences in melting temperature upon compound binding are given as ΔTm = Tm (protein with inhibitor) – Tm (protein with DMSO control). Measurements were performed in triplicates.

For assay [8], the target named is T2, BRD4 BD1. The assay can be described thus: DSF thermal shift assay. The class given is binding. More on the design: purchased in-house (SGC Frankfurt recombinant bromodomain DSF panel). The method, then:
as §5

The target of assay [9] is BRD4 bromodomains (Homo sapiens, UniProt O60885). In words: NanoBRET target engagement assay, both bromodomains. The class given is cell-based. The note with it: BD1 and BD2, intact cells; read-out: NanoBRET EC50 BRD4 bromodomains. How it is done:
as §1

[10] abbreviates: 10 μM compound, 2 μM protein, read-out: DSF ΔTm BRD4 BD2.
The mark [11] stands for this setting: 10 μM compound, 2 μM protein, read-out: DSF ΔTm BRD4 BD1.

Chain of HDAC1 (Q13547 whole entry, the tested form may be a part): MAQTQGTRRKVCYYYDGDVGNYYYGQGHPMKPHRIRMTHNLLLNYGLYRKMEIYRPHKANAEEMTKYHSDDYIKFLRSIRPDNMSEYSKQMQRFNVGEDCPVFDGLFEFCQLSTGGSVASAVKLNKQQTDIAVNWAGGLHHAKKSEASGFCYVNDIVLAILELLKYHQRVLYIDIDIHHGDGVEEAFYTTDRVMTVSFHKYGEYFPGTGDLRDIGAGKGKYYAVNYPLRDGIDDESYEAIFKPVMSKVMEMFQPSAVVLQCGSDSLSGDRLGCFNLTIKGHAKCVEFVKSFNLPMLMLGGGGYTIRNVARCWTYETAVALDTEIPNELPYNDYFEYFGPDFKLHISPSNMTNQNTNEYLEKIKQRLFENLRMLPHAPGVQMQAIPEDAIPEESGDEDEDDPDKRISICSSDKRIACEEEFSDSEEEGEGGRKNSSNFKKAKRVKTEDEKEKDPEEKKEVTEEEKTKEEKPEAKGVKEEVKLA

On to `CC(=O)Nc1ccc(C(=O)Nc2ccccc2N)cc1` [CI-994, reference compound], for which the EC50 in assay [1] (lysed cells (digitonin)) and in [2] (lysed cells (digitonin)) was greater than 50 µM in each case. The IC50 in assay [3] came to 13.1 ± 2.4 µM; in assay [4], 1.8 ± 0.2 µM.

`Cc1cc(/N=N/c2ccc(S(=O)(=O)Nc3ccccn3)cc2)c(N)cc1O` [MS436, reference compound]: the EC50 is greater than 50 µM in assay [5] (intact cells), greater than 50 µM in assay [5] (lysed cells (digitonin)), 18.8 ± 1 µM in assay [6] (intact cells) and greater than 50 µM in assay [6] (lysed cells (digitonin)). Also, the IC50 stood at 10.4 ± 1.2 µM in assay [3] and 0.81 ± 0.15 µM in assay [4]. Moreover, the “DSF ΔTm BRD4 BD2” value in assay [7] (10 μM compound, 2 μM protein) is reported as 2.9 ± 0.1 K. The results for the ΔTm at 10 µM in assay [7] (setting [10]) and in assay [8] (setting [11]) were roughly 3 °C and 4 ± 0.4 °C, respectively.

For the compound `Cc1cc(/N=N/c2ccc(C(=O)Nc3ccccc3N)cc2)c(N)cc1O` [NB161], the EC50 in assay [5] (intact cells) was greater than 50 µM; in assay [6] (intact cells) it was 10.8 ± 5.1 µM. For the same compound, the results for the ΔTm at 10 µM in assay [7] (setting [10]) and in assay [8] (setting [11]) were roughly 3 °C and 5.3 °C, respectively. The “DSF ΔTm BRD4 BD1” value in [8] (10 μM compound, 2 μM protein) turned out to be 5.2 ± 0.3 K.

Regarding `Cc1cc(/N=N/c2ccc(C(=O)Nc3ccccc3N)cc2)c2cc[nH]c2c1O` [NB390], the EC50 in assay [1] (intact cells) came to 0.05 ± 0.01 µM; in [2] (intact cells) it was 0.19 ± 0.03 µM; in assay [5] (intact cells), 1.3 ± 0.9 µM; in assay [6] (intact cells), 2.1 ± 0.7 µM. In addition, the values for the ΔTm at 10 µM in [7] (setting [10]) and in assay [8] (setting [11]) were 5.2 ± 0.2 °C and 7.5 ± 0.2 °C, respectively.

Consider `Cn1cc(-c2ccc3cc(C(=O)Nc4ccccc4N)ccc3n2)c2cc[nH]c2c1=O` [NB437], for which the EC50 in assay [1] (intact cells) was 0.2 ± 0.03 µM; in assay [2] (intact cells) it was 0.18 ± 0.03 µM; in assay [5] (intact cells) it was 24.8 µM and 25 µM; in [6] (intact cells), 23.2 µM and 23 µM; in assay [6] (lysed cells (digitonin)), 11 ± 1.8 µM; in [9], 0.1 to 0.4 µM. In addition, in assay [7] (10 μM compound, 2 μM protein), the “DSF ΔTm BRD4 BD2” value is recorded as 4.8 ± 0.2 K. The ΔTm at 10 µM in [7] (read-out: DSF ΔTm BRD4 BD2, 10 μM compound, 2 μM protein) fell in the range of 4 to 5 °C; in assay [8] (read-out: DSF ΔTm BRD4 BD1, 10 μM compound, 2 μM protein), 4 to 5 °C. Also, the “DSF ΔTm BRD4 BD1” value in [8] (10 μM compound, 2 μM protein) was found to be 4.0 ± 0.2 K.

For the compound `Cn1cc(-c2ccc(C(=O)Nc3ccccc3N)cc2N)c2cc[nH]c2c1=O` [NB469], the EC50 in assay [1] (intact cells) came to 2.1 ± 0.4 µM; in assay [2] (intact cells) it was 3.7 ± 0.5 µM; in assay [5] (intact cells), 39.7 ± 9 µM; in assay [6] (intact cells) it was 34.4 ± 5.8 µM; in [6] (lysed cells (digitonin)) it was 32.2 ± 7.1 µM. The results for the ΔTm at 10 µM in assay [7] (setting [10]) and in assay [8] (setting [11]) were 1.7 ± 0.3 °C and 0.9 ± 0.2 °C, respectively.
